Assay results from ChEMBL document CHEMBL5291721, “A preclinical secondary pharmacology resource illuminates target-adverse drug reaction associations of marketed drugs” (Nat Commun, 2023).

Legend:
[1] = biological target: Voltage-dependent L-type calcium channel subunit alpha-1C (Homo sapiens, UniProt Q13936); assay type: functional, cell-based
[2] = biological target: cGMP-inhibited 3',5'-cyclic phosphodiesterase 3A (Homo sapiens, UniProt Q14432); assay type: functional
[3] = biological target: 3',5'-cyclic-AMP phosphodiesterase 4A (Homo sapiens, UniProt P27815); assay type: functional
[4] = biological target: T1, Alpha-2A adrenergic receptor (Homo sapiens, UniProt P08913)
T1 sequence (P08913 whole entry): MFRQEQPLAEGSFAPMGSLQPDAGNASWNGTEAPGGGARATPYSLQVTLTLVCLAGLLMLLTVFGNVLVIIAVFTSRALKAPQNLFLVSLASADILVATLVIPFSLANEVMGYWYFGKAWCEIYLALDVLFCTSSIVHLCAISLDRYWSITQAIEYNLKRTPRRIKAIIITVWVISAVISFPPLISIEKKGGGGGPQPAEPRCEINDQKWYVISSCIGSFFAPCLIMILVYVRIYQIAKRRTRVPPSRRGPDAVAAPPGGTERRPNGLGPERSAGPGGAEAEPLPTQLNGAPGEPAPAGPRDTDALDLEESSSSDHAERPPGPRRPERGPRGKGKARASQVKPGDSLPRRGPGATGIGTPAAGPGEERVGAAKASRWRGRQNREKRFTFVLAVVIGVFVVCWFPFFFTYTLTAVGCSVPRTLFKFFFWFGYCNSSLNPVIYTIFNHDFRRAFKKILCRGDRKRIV

[5] = biological target: T2, D(1A) dopamine receptor (Homo sapiens, UniProt P21728); assay type: functional, cell-based
[6] = biological target: T3, Muscarinic acetylcholine receptor M1 (Homo sapiens, UniProt P11229); assay type: functional, cell-based
T3 sequence (P11229 whole entry): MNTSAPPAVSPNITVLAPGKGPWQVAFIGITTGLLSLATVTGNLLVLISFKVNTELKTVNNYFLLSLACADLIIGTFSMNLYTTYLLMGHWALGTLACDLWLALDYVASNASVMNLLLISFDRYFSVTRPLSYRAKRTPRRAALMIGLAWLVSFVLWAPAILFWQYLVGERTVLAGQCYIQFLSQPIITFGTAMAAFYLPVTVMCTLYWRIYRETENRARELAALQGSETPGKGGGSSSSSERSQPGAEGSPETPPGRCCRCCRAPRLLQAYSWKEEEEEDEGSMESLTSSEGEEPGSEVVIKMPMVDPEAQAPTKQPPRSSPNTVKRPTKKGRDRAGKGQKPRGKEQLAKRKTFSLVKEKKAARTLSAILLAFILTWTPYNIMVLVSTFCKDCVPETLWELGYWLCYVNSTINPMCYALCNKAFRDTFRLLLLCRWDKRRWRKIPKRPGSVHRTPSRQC

[7] = biological target: T3, Muscarinic acetylcholine receptor M1; assay type: functional, cell-based; remark: listed apart in the source
[8] = biological target: T4, Estrogen receptor (Homo sapiens, UniProt P03372)
T4 sequence (P03372 whole entry): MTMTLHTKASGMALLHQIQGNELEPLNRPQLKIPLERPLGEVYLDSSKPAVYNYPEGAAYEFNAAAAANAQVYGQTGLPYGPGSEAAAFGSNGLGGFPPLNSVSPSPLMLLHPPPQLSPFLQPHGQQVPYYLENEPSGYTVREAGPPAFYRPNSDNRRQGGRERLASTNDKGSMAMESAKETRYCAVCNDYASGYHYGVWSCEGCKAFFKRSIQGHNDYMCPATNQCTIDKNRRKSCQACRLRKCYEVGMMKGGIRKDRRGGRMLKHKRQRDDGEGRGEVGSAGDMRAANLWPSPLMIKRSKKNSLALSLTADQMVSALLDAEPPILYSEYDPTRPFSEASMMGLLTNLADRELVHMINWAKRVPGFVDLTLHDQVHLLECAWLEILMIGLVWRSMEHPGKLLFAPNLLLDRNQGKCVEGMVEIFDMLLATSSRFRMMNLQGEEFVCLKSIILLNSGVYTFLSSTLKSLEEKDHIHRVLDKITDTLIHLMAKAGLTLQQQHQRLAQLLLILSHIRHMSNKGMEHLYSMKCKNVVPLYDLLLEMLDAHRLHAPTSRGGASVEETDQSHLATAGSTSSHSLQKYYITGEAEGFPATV

[9] = biological target: T2, D(1A) dopamine receptor
[10] = biological target: D(3) dopamine receptor (Homo sapiens, UniProt P35462)
[11] = biological target: T2, D(1A) dopamine receptor; remark: listed apart in the source
[12] = biological target: T5, Alpha-1A adrenergic receptor (Homo sapiens, UniProt P35348)
T5 sequence (P35348 whole entry): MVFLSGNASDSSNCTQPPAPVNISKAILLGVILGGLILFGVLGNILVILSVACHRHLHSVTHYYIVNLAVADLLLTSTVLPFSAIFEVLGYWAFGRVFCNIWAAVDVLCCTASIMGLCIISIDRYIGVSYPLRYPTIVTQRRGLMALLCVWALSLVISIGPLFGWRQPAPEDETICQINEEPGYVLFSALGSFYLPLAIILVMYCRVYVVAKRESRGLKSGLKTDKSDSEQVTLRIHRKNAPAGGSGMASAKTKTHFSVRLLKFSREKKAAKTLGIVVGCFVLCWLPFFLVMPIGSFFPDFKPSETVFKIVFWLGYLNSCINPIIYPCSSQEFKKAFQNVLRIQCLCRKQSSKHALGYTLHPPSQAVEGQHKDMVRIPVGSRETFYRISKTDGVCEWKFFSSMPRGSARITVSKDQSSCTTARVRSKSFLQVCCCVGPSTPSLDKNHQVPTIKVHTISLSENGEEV

[13] = biological target: 5-hydroxytryptamine receptor 2B (Homo sapiens, UniProt P41595); assay type: functional, cell-based
[14] = biological target: Sodium-dependent noradrenaline transporter (Homo sapiens, UniProt P23975)
[15] = biological target: Prostaglandin G/H synthase 1 (Homo sapiens, UniProt P23219); assay type: functional
Further: assay procedure not described here.

T2 sequence (P21728 whole entry): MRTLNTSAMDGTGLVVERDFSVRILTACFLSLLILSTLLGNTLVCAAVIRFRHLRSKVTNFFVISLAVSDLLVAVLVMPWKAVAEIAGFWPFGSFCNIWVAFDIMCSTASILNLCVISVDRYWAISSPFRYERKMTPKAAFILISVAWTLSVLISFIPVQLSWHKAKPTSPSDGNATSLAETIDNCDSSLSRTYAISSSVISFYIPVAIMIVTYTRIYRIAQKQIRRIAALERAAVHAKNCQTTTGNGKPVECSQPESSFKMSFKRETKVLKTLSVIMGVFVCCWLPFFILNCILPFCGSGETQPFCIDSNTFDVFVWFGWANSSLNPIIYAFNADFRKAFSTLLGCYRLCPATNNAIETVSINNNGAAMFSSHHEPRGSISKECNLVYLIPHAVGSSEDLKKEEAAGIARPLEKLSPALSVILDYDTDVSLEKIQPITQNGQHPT
cGMP-inhibited 3',5'-cyclic phosphodiesterase 3A, sequence (Q14432 whole entry): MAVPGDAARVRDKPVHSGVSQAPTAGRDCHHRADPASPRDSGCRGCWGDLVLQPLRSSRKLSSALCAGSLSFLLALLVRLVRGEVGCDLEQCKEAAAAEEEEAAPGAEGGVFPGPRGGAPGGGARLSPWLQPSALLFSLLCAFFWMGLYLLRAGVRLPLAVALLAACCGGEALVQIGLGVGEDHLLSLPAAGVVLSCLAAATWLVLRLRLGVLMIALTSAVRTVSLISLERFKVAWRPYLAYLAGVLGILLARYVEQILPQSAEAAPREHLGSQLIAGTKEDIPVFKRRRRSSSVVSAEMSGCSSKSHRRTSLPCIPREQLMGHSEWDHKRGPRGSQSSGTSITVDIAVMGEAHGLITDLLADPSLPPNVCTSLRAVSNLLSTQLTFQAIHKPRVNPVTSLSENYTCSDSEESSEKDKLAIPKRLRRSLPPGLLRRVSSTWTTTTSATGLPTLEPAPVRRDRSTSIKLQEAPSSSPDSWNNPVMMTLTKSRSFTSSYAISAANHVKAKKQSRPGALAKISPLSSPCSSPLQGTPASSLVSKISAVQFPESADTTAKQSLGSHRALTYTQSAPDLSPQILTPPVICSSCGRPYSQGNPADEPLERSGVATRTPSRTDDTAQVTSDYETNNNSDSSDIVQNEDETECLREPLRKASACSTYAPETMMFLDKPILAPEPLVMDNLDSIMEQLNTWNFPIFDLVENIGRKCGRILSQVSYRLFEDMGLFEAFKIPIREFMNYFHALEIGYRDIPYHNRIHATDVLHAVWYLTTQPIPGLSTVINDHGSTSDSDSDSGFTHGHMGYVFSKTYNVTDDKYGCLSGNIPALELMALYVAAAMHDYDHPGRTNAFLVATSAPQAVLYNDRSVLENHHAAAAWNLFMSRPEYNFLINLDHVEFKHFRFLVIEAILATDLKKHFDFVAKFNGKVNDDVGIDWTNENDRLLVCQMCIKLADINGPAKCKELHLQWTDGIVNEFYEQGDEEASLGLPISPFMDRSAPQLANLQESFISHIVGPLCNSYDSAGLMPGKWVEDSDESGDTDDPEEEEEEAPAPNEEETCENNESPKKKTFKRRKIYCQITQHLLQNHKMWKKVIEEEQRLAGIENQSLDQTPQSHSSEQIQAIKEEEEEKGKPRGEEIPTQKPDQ
3',5'-cyclic-AMP phosphodiesterase 4A, sequence (P27815 whole entry): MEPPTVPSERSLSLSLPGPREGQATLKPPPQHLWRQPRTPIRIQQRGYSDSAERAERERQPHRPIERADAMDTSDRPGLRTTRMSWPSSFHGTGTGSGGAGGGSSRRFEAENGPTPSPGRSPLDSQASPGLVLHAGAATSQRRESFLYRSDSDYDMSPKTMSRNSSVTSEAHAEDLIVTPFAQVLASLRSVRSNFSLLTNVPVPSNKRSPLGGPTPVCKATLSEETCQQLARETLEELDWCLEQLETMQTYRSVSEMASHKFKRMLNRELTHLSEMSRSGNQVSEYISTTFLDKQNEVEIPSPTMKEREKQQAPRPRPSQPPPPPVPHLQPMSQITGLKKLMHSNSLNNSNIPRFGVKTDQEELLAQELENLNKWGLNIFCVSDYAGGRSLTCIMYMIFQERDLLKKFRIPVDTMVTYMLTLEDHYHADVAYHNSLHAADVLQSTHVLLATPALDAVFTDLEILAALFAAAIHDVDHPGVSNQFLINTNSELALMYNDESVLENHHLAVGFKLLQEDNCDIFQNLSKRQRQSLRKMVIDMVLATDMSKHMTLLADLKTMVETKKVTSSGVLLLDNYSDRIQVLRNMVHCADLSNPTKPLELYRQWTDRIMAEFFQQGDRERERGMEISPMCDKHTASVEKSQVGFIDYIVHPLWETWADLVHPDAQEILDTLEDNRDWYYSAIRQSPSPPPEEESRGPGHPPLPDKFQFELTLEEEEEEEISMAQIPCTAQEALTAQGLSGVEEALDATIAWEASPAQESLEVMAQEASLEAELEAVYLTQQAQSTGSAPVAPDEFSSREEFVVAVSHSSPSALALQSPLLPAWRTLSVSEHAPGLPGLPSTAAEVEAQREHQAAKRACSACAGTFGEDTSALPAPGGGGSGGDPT
D(3) dopamine receptor, sequence (P35462 whole entry): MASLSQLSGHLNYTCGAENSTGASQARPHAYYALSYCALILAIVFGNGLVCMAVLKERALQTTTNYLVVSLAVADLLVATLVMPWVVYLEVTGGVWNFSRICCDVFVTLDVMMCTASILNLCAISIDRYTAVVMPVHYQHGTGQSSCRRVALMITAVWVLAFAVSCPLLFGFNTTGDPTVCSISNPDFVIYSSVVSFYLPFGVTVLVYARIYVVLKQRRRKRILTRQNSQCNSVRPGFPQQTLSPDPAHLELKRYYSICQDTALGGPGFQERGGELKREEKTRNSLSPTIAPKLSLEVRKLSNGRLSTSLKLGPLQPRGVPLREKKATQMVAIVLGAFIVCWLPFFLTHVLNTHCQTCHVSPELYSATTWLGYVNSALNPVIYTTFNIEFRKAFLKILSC
5-hydroxytryptamine receptor 2B, sequence (P41595 whole entry): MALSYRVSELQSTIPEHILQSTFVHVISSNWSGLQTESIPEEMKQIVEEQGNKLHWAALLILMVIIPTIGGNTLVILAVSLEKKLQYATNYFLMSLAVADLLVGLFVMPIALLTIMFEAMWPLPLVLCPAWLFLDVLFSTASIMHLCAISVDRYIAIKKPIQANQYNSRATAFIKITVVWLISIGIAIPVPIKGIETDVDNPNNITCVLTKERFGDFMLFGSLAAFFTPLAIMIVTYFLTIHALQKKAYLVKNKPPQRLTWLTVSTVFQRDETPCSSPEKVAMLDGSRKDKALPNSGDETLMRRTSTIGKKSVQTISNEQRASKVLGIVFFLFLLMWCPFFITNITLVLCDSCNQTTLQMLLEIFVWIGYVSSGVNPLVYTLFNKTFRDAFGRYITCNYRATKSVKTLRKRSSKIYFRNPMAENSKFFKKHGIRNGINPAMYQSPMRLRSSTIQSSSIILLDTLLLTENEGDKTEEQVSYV
Prostaglandin G/H synthase 1, sequence (P23219 whole entry): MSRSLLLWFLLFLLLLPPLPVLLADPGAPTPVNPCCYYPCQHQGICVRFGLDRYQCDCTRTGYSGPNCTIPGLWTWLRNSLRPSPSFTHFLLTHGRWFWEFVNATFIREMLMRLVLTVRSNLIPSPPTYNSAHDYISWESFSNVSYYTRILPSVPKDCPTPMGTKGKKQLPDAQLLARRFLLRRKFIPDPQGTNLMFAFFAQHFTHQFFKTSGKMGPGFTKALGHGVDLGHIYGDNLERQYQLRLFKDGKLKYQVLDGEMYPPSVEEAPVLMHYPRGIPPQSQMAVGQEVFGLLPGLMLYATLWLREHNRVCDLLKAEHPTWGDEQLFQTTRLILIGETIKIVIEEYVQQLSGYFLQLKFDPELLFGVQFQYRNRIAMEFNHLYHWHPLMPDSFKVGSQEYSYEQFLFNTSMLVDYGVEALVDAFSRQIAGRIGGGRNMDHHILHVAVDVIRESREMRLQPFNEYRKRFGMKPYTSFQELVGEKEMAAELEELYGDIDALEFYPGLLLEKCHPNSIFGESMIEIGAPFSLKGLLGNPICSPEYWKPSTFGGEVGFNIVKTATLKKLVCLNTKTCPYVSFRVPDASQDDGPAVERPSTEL
Sodium-dependent noradrenaline transporter, sequence (P23975 whole entry): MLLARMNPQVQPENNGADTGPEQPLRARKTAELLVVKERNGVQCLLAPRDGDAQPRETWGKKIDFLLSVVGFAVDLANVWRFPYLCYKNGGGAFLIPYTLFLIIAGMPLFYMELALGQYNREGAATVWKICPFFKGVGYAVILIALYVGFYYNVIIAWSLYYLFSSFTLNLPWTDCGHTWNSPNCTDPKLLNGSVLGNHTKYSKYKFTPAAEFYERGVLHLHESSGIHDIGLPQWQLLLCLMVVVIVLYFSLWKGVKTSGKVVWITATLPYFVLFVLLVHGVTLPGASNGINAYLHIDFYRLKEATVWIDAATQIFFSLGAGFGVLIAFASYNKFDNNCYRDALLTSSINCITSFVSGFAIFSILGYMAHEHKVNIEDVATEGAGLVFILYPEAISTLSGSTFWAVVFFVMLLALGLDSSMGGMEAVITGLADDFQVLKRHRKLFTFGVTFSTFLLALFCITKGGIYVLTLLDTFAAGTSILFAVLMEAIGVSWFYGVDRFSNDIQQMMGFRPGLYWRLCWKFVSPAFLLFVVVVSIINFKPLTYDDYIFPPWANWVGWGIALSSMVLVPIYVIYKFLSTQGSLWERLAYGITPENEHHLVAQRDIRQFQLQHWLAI

## N#Cc1ccccc1-c1cc(-c2ccccn2)cn(-c2ccccc2)c1=O
[1]
  AC50: > 30 µM

## NCCCC(O)(P(=O)(O)O)P(=O)(O)O [ALENDRONIC ACID]
[2]
  AC50: > 30 µM
[3]
  AC50: > 30 µM
[4]
  AC50: > 30 µM

## O=C(CCCN1CCC(n2c(O)nc3ccccc32)CC1)c1ccc(F)cc1 [BENPERIDOL]
[5]
  AC50: 7.5 µM

## CCN(CC)C(=O)C1CN2CCc3cc(OC)c(OC)cc3C2CC1OC(C)=O (stereo not drawn) [BENZQUINAMIDE]
[6]
  AC50: > 30 µM
[7]
  AC50: > 30 µM

## CC(C)(C)NCC(O)c1cc(Cl)c(N)c(Cl)c1 (stereo not drawn) [CLENBUTEROL]
[5]
  AC50: > 30 µM

## COC(=O)N[C@@H](C)CNc1nccc(-c2cn(C(C)C)nc2-c2cc(Cl)cc(NS(C)(=O)=O)c2F)n1 [ENCORAFENIB]
[1]
  AC50: > 30 µM

## C[n+]1ccccc1/C=N/O [PRALIDOXIME]
[8]
  AC50: > 30 µM
[9]
  AC50: > 30 µM
[2]
  AC50: > 30 µM
[10]
  AC50: > 30 µM
[11]
  AC50: > 30 µM
[12]
  AC50: > 30 µM
[3]
  AC50: > 30 µM
[13]
  AC50: > 30 µM
[4]
  AC50: > 30 µM
[14]
  AC50: > 30 µM
[15]
  AC50: > 30 µM

## CCCOC(C(=O)OC1CCN(C)CC1)(c1ccccc1)c1ccccc1 [PROPIVERINE]
[6]
  AC50: > 30 µM
[7]
  AC50: 0.59 µM

## COLISTIN
[8]
  AC50: > 30 µM
[9]
  AC50: > 30 µM
[2]
  AC50: > 30 µM
[10]
  AC50: > 30 µM
[11]
  AC50: > 30 µM
[12]
  AC50: > 30 µM
[3]
  AC50: 12 µM
[13]
  AC50: > 30 µM
[4]
  AC50: > 30 µM
[14]
  AC50: > 30 µM
[15]
  AC50: > 30 µM
